ChEMBL document CHEMBL4476874, “Compounds for the modulation of myc activity” (2018)

Assays:
[1] = target: Myc proto-oncogene protein (Homo sapiens, UniProt P01106); assay: Inhibition of human c-Myc assessed as reduction in c-Myc/Max/Ebox DNA complex formation using pre-formed complex of c-Myc and biotinylated DNA containing single Ebox-sequence followed by compound addition and further addition of his6-tagged c-Max and incubated for 2 hrs by AlphaScreen assay
[2] = system: NCI-H2171; assay: Antiproliferative activity against human NCI-H2171 cells after 72 hrs by ATPlite assay; assay type: functional, cell-based; settings: NCI-H2171, 72 h

Sequence of Myc proto-oncogene protein (P01106 whole entry): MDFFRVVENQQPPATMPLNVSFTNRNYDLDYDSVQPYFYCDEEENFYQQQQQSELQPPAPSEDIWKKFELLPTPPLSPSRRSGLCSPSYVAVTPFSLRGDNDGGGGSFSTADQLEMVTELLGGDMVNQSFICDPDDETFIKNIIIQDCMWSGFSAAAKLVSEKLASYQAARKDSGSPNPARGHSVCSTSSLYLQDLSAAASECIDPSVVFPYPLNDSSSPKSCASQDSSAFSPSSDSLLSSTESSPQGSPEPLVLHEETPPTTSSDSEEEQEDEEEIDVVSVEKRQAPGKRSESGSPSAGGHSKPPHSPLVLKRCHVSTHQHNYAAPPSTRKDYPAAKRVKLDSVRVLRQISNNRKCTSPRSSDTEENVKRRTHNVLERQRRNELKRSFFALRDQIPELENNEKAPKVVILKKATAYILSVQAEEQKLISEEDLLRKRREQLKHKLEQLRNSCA

For `COCCNCCC(=O)Nc1sc2c(c1-c1nc3cc(-c4ccc(N5CCN(C)CC5)cc4)ccc3s1)CCNC2`, the IC50 [1] was 0.3 to 1 µM and the IC50 [2] was < 0.3 µM.
With `COCCNCCC(=O)Nc1sc2c(c1-c1nc3cc(-c4cnn(C)c4C)ccc3s1)CCNC2` the IC50 [1] was 0.3 to 1 µM and the IC50 [2] was < 0.3 µM.
In the case of `COCCNCCC(=O)Nc1sc2c(c1-c1nc3cc(OC4CCOCC4)ccc3s1)CCNC2`, the IC50 [1] is reported as 0.3 to 1 µM and the IC50 [2] is reported as < 0.3 µM.
`COCCNCCC(=O)Nc1sc2c(c1-c1nc3cc(-c4ccnc(OC)c4)ccc3s1)CCNC2` was tested, and the IC50 [1] was 0.3 to 1 µM and the IC50 [2] was < 0.3 µM.
With `CC(C)NCCC(=O)Nc1sc2c(c1-c1nc3cc(Sc4ccccc4)ccc3s1)CCNC2` the IC50 [1] was > 10 µM and the IC50 [2] was 0.3 to 1 µM.
For `COCCNCCC(=O)Nc1sc2c(c1-c1nc3cc(-c4cncnc4)ccc3s1)CCNC2`, the IC50 [1] was < 0.3 µM and the IC50 [2] was 0.3 to 1 µM.
In the case of `COCCNCCC(=O)Nc1sc2c(c1-c1nc3ccc(-c4cccc(C(=O)N(C)C)c4)cc3s1)CCNC2`, the IC50 [1] is reported as 0.3 to 1 µM and the IC50 [2] is reported as < 0.3 µM.
`COCCNCCC(=O)Nc1sc2c(c1-c1nc3cc(-c4ccccc4NS(C)(=O)=O)ccc3s1)CCNC2` was tested, and the IC50 [1] was 1 to 10 µM and the IC50 [2] was < 0.3 µM.
In the case of `COCCNCCC(=O)Nc1sc2c(c1-c1nc3cc(F)ccc3s1)CCN[C@H]2C`, the IC50 [2] is reported as < 0.3 µM.
For `COCCNCCC(=O)Nc1sc2c(c1-c1nc3cc(-c4ccncc4C)ccc3s1)CCNC2`, the IC50 [1] was 1 to 10 µM and the IC50 [2] was < 0.3 µM.
`CC(=O)Nc1sc2c(c1-c1nc3cc(-c4cnn(C)c4)ccc3s1)CCNC2` was tested, and the IC50 [1] was 0.3 to 1 µM and the IC50 [2] was < 0.3 µM.
With `COCCNCCC(=O)Nc1sc2c(c1-c1nc3c(N4CCOCC4)cccc3s1)CCNC2` the IC50 [1] was > 10 µM and the IC50 [2] was 0.3 to 1 µM.
`COCCNCCC(=O)Nc1sc2c(c1-c1nc3cc(-c4cnccc4C)ccc3s1)CCNC2` was tested, and the IC50 [1] was 1 to 10 µM and the IC50 [2] was < 0.3 µM.
In the case of `COCCNCCC(=O)Nc1sc2c(c1-c1nc3ccc(-c4cccc(NS(C)(=O)=O)c4)cc3s1)CCNC2`, the IC50 [1] is reported as 0.3 to 1 µM and the IC50 [2] is reported as < 0.3 µM.
For `COCCNCCC(=O)Nc1sc2c(c1-c1nc3cc(-c4c(C)nn(C)c4C)ccc3s1)CCNC2`, the IC50 [1] was 1 to 10 µM and the IC50 [2] was < 0.3 µM.
`O=C(C[C@H]1CCCN1)Nc1sc2c(c1-c1nc3ccccc3s1)CCNC2` was tested, and the IC50 [1] was 0.3 to 1 µM and the IC50 [2] was < 0.3 µM.
For `COCCNCCC(=O)Nc1sc2c(c1-c1nc3cc(-c4cc(C)[nH]n4)ccc3s1)CCNC2`, the IC50 [1] was 0.3 to 1 µM and the IC50 [2] was < 0.3 µM.
`COCCNCCC(=O)Nc1sc2c(c1-c1nc3cc(-c4ccc(C(F)(F)F)nc4)ccc3s1)CCNC2` was tested, and the IC50 [1] was 1 to 10 µM and the IC50 [2] was < 0.3 µM.
In the case of `COCCNCCC(=O)Nc1sc2c(c1-c1nc3ccc(-c4ccc(F)nc4)cc3s1)CCNC2`, the IC50 [1] is reported as 0.3 to 1 µM and the IC50 [2] is reported as < 0.3 µM.
`COCCNCCC(=O)Nc1sc2c(c1-c1nc3cc(-c4ccnc(C)c4)ccc3s1)CCNC2` was tested, and the IC50 [1] was 0.3 to 1 µM and the IC50 [2] was < 0.3 µM.
With `CC(C)NCCC(=O)Nc1sc2c(c1-c1nc3ccccc3o1)CCNC2` the IC50 [1] was 0.3 to 1 µM and the IC50 [2] was < 0.3 µM.
For `CSc1cccc2sc(-c3c(NC(=O)CCNC(C)C)sc4c3CCNC4)nc12`, the IC50 [1] was 0.3 to 1 µM and the IC50 [2] was < 0.3 µM.
`COCCNCCC(=O)Nc1sc2c(c1-c1nc3cc(-c4ccc(F)nc4F)ccc3s1)CCNC2` was tested, and the IC50 [1] was 0.3 to 1 µM and the IC50 [2] was < 0.3 µM.
`COCCNCCC(=O)Nc1sc2c(c1-c1nc3ccc(-c4ccnc(C)c4)cc3s1)CCNC2` was tested, and the IC50 [1] was 0.3 to 1 µM and the IC50 [2] was < 0.3 µM.
In the case of `COCCNCCC(=O)Nc1sc2c(c1-c1nc3ccc(-c4cnn(C)c4C)cc3s1)CCNC2`, the IC50 [1] is reported as 0.3 to 1 µM and the IC50 [2] is reported as < 0.3 µM.
With `O=C(CCNC1CC1)Nc1sc2c(c1-c1nc3ccccc3s1)CCNC2` the IC50 [1] was 0.3 to 1 µM and the IC50 [2] was < 0.3 µM.
`O=C(CCNC1C2CC1C2)Nc1sc2c(c1-c1nc3ccccc3s1)CCNC2` (configuration not stated) was tested, and the IC50 [1] was 1 to 10 µM and the IC50 [2] was 0.3 to 1 µM.
With `COCCNCCC(=O)Nc1sc2c(c1-c1nc3cc(-c4cncc(OCCOC)c4)ccc3s1)CCNC2` the IC50 [1] was 0.3 to 1 µM and the IC50 [2] was < 0.3 µM.
`CC[C@H](C)NCCC(=O)Nc1sc2c(c1-c1nc3ccccc3s1)CC(C)NC2C` (single isomer, unassigned; 621) was tested, and the IC50 [2] was 1 to 10 µM.
With `CC(=O)Nc1sc2c(c1-c1nc3ccc(-c4ccncc4)cc3s1)CCNC2` the IC50 [2] was 0.3 to 1 µM.
`CC(=O)Nc1sc2c(c1-c1nc3ccccc3s1)C[C@@H](C)N[C@H]2C` (relative stereo) gave an IC50 [2] of 0.3 to 10 µM.
`CC[C@H](C)NCCC(=O)Nc1sc2c(c1-c1nc3ccccc3s1)CC(C)NC2C` (single isomer, unassigned; 620) was tested, and the IC50 [2] was 1 to 10 µM.
In the case of `COCCNCCC(=O)Nc1sc2c(c1-c1nc3ccc(-c4cccnc4OC)cc3s1)CCNC2`, the IC50 [1] is reported as 1 to 10 µM.
For `CC(C)NCCC(=O)Nc1sc2c(c1-c1nc3cc(-n4cncn4)ccc3s1)CCNC2`, the IC50 [1] was < 0.3 µM.
With `CC(C)N1CCc2c(sc(NC(=O)CCN3CCc4ccccc4C3)c2-c2nc3ccccc3s2)C1` the IC50 [1] was > 10 µM.
For `COCCNCCC(=O)Nc1sc2c(c1-c1nc3ccc(-c4ccc5c(c4)OCO5)cc3s1)CCNC2`, the IC50 [1] was > 10 µM.
Work on `COc1ccccc1-c1ccc2sc(-c3c(NC(=O)CCNC(C)C)sc4c3CCNC4)nc2c1` yielded an IC50 [1] of 1 to 10 µM.
In the case of `CC[C@H](C)NCCC(=O)Nc1sc2c(c1-c1nc3ccccc3s1)CC(C)NC2C` (single isomer, unassigned; 624), the IC50 [2] is reported as < 0.3 µM.
In the case of `CC(C)NCCC(=O)Nc1sc2c(c1-c1nc3cc(C(C)O)ccc3s1)CCNC2` (configuration not stated), the IC50 [1] is reported as < 0.3 µM.
For `COCCNCCC(=O)Nc1sc2c(c1-c1nc3cc(-c4ccc5c(c4)NC(=O)C5)ccc3s1)CCNC2`, the IC50 [1] was > 10 µM.
For `COCCNCCC(=O)Nc1sc2c(c1-c1nc3ccc(-c4cccnc4C)cc3s1)CCNC2`, the IC50 [1] was > 10 µM.
With `COCCNCCC(=O)Nc1sc2c(c1-c1nc3ccc(-c4cnccc4OC)cc3s1)CCNC2` the IC50 [1] was > 10 µM.
With `COCCNCCC(=O)Nc1sc2c(c1-c1nc3ccc(-c4ccc5c(c4)NC(=O)CO5)cc3s1)CCNC2` the IC50 [1] was > 10 µM.
In the case of `COCCNCCC(=O)Nc1sc2c(c1-c1nc3ccc(-c4cccnc4F)cc3s1)CCNC2`, the IC50 [1] is reported as > 10 µM.
`CC(C)N1CCc2c(sc(NC(=O)CCNc3ccc(-c4nnn[nH]4)cc3)c2-c2nc3ccccc3s2)C1` was tested, and the IC50 [1] was > 10 µM.
Compound `COCCNCCC(=O)Nc1sc2c(c1-c1nc3cc(-c4cccc(C(=O)NCCN(C)C)c4)ccc3s1)CCNC2` has an IC50 [1] of 0.3 to 1 µM.
For `COCCNCCC(=O)Nc1sc2c(c1-c1nc3ccc(-c4ccc(OC(C)C)nc4)cc3s1)CCNC2`, the IC50 [1] was > 10 µM.
In the case of `CCOc1ncccc1-c1ccc2nc(-c3c(NC(=O)CCNCCOC)sc4c3CCNC4)sc2c1`, the IC50 [1] is reported as > 10 µM.
`COCCNCCC(=O)Nc1sc2c(c1-c1nc3cc(-c4ccccc4S(C)(=O)=O)ccc3s1)CCNC2` was tested, and the IC50 [1] was > 10 µM.
For `COCCNCCC(=O)Nc1sc2c(c1-c1nc3ccc(-c4ccc(C)c(C#N)c4)cc3s1)CCNC2`, the IC50 [1] was > 10 µM.
In the case of `CNc1ncc2cc(-c3ccc4sc(-c5c(NC(=O)CCNCCOC)sc6c5CCNC6)nc4c3)ccc2n1`, the IC50 [1] is reported as > 10 µM.
For `COCCNCCC(=O)Nc1sc2c(c1-c1nc3ccccc3s1)C[C@@H](C)NC2`, the IC50 [2] was < 0.3 µM.
For `COCCNCCC(=O)Nc1sc2c(c1-c1nc3ccc(-c4cnc(N5CCOCC5)nc4)cc3s1)CCNC2`, the IC50 [1] was > 10 µM.
With `COCCNCCC(=O)Nc1sc2c(c1-c1nc3c(N4CCCC4)cccc3s1)CCNC2` the IC50 [1] was < 0.3 µM.
For `COCCNCCC(=O)Nc1sc2c(c1-c1nc3cc(-c4ccccc4Cl)ccc3s1)CCNC2`, the IC50 [1] was 1 to 10 µM.
For `COCCNCCC(=O)Nc1sc2c(c1-c1nc3ccc(-c4ccc(C(=O)N(C)C)cc4F)cc3s1)CCNC2`, the IC50 [1] was 0.3 to 1 µM.
For `COCCNCCC(=O)Nc1sc2c(c1-c1nc3cc(-c4cc5ccccc5[nH]4)ccc3s1)CCNC2`, the IC50 [1] was > 10 µM.
`COCCNCCC(=O)Nc1sc2c(c1-c1nc3cc(-c4ccc(C)c(C#N)c4)ccc3s1)CCNC2` was tested, and the IC50 [1] was > 10 µM.
In the case of `CC(C)N1CCc2c(sc(NC(=O)CCNc3ccccc3)c2-c2nc3ccccc3s2)C1`, the IC50 [1] is reported as > 10 µM.
For `CC(C)N1CCc2c(sc(NC(=O)CCNc3cccc(O)c3)c2-c2nc3ccccc3s2)C1`, the IC50 [1] was 1 to 10 µM.
